Several values for one entry are separate records, joined by “and”; a condition that tells them apart may be missing. Equal entries are not always repeated. Activity calls are given as the source filed them.
Assays:
[1] = biological target: T1, Caspase-3 (Homo sapiens, UniProt P42574); assay: caspase-3 inhibitors as off-family protease, SAR follow-up, selectivity assay for SENP protease inhibitor project, biochemical, luminescence, set 2 (AID 588599); format: functional
T1 sequence (P42574 whole entry): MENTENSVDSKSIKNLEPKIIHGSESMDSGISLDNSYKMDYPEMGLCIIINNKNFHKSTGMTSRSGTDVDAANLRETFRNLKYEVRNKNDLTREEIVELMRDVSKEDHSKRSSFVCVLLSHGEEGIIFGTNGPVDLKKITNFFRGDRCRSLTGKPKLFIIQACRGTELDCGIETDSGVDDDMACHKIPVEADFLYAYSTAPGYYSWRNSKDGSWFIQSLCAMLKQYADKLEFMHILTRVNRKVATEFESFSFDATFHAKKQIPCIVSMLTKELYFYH

[2] = biological target: T2, Sentrin-specific protease 8 (Homo sapiens, UniProt Q96LD8); assay: SENP8 protease inhibitors, SAR follow-up, biochemical, luminescence (AID 504501); format: functional
T2 sequence (Q96LD8 whole entry): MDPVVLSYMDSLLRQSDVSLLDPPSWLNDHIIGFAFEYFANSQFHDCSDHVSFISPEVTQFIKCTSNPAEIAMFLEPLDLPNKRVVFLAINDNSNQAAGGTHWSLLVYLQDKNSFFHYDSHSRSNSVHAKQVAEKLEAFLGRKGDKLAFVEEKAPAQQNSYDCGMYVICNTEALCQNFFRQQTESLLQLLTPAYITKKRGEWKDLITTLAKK

[3] = biological target: T1, Caspase-3; assay: SAR Analysis of small molecule inhibitors of Sentrin-specific proteases (SENPs) using a Caspase-3 Selectivity assay. [Related pubchem assays (depositor defined):AID2540, AID2599, AID434973, AID489001]; format: functional
[4] = biological target: T2, Sentrin-specific protease 8; assay: SENP8 protease inhibitors, SAR follow-up, biochemical, luminescence, set 2 (AID 588601); format: functional
[5] = biological target: T3, Sentrin-specific protease 7 (Homo sapiens, UniProt Q9BQF6); assay: SENP7 protease inhibitors, SAR follow-up, biochemical, luminescence (AID 504497); format: functional
T3 sequence (Q9BQF6 whole entry): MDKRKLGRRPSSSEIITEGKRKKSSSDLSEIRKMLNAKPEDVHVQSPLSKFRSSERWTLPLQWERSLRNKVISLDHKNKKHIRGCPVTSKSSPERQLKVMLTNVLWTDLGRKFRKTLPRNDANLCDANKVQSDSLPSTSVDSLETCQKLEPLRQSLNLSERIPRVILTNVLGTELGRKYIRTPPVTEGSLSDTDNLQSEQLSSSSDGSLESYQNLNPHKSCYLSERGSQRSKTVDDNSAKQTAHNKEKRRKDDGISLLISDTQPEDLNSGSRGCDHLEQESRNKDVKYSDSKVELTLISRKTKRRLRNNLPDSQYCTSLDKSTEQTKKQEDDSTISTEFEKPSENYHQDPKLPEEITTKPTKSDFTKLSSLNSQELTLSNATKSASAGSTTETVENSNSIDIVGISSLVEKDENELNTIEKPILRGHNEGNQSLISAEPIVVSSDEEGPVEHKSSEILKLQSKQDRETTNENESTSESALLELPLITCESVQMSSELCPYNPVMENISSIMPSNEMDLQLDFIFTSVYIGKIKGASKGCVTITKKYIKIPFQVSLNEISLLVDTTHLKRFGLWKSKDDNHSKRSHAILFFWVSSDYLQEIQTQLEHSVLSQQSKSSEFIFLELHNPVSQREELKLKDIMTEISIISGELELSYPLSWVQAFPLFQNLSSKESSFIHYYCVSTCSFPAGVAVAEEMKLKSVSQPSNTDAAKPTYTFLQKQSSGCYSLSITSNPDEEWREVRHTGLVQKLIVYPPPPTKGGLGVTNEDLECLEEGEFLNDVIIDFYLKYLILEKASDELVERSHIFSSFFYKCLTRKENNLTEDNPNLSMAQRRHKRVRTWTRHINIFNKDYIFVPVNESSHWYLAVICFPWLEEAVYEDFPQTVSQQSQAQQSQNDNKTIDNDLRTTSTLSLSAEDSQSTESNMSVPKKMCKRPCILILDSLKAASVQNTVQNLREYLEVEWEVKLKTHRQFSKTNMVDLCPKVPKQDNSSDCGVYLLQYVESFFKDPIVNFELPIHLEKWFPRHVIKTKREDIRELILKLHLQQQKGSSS

[6] = biological target: T3, Sentrin-specific protease 7; assay: SENP7 protease inhibitors, SAR follow-up, biochemical, luminescence, set 2 (AID 588600); format: functional
[7] = biological target: T4, Sentrin-specific protease 6 (Homo sapiens, UniProt Q9GZR1); assay: SAR Analysis of small molecule inhibitors of Sentrin-specific protease 6 (SENP6) using a Luminescent assay. [Related pubchem assays (depositor defined):AID2582, AID2599]; format: functional
T4 sequence (Q9GZR1 whole entry): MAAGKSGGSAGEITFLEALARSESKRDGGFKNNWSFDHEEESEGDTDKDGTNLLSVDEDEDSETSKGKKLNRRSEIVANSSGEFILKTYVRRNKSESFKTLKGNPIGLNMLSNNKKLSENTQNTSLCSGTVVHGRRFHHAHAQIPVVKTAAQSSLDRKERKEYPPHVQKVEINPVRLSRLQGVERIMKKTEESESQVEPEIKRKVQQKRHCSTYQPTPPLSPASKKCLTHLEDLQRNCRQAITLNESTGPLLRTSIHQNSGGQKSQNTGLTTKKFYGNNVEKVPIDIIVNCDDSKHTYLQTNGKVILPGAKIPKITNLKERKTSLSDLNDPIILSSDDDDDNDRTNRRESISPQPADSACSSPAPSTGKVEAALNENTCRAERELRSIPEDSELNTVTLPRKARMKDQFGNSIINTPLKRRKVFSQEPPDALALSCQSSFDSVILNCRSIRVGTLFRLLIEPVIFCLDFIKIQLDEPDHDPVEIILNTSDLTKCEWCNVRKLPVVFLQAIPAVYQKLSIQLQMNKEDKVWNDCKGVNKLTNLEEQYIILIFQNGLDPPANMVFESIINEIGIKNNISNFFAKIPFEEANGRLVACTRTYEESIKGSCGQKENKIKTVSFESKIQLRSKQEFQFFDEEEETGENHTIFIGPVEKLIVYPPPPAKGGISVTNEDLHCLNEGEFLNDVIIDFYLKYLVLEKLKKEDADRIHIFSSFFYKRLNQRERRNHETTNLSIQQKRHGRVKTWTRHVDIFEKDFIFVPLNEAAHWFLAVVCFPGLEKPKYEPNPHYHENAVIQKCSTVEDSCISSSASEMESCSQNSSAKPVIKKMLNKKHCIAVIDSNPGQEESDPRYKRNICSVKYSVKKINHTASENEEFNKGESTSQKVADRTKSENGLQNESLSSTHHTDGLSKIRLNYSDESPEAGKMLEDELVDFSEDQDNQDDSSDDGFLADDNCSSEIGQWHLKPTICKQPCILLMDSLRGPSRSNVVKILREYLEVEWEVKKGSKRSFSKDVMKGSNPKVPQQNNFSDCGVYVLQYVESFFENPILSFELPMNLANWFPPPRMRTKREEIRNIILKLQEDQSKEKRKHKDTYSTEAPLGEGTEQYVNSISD

[8] = biological target: T4, Sentrin-specific protease 6; assay: SENP6 protease inhibitors, SAR follow-up, biochemical, luminescence, set 2 (AID 588598); format: functional
[9] = biological target: Benomyl/methotrexate resistance protein (Candida albicans, UniProt P28873); assay: CaMdr1 efflux pump inhibitor potency, dose response, singleplex, Cherry Pick1 hits (AID 588608); format: functional
[10] = biological target: Protein disulfide-isomerase (Homo sapiens, UniProt P07237); assay: PDI inhibitors, insulin aggregation turbidity, dose response, biochemical, absorbance, cherry-picked samples (AID 602350); format: functional
[11] = test system: Streptococcus sp. 'group A'; assay: growth inhibition of control SK(-) GAS strain, dose response, counter-screen for streptokinase expression inhibitor project, luminescence, kanamycin, BacTiterGlo, confirmation (AID 1900); format: functional, organism-based
[12] = test system: Vero; assay: Vero cell cytotoxicity, cytotoxicity control for flavivirus capping enzyme inhibitors (AID 588742); format: functional; settings: Chlorocebus sabaeus
[13] = biological target: T5, Streptokinase A (Streptococcus pyogenes serotype M1, UniProt P10520); assay: S. pyogenes streptokinase expression inhibitors, potency, dose response, plasminogen activation absorbance, OD405 (AID 1914); format: functional, Streptococcus pyogenes M1 GAS;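 also: secreted streptokinase activity via plasminogen activation per viability signal from cell pellet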
T5 sequence (P10520 whole entry): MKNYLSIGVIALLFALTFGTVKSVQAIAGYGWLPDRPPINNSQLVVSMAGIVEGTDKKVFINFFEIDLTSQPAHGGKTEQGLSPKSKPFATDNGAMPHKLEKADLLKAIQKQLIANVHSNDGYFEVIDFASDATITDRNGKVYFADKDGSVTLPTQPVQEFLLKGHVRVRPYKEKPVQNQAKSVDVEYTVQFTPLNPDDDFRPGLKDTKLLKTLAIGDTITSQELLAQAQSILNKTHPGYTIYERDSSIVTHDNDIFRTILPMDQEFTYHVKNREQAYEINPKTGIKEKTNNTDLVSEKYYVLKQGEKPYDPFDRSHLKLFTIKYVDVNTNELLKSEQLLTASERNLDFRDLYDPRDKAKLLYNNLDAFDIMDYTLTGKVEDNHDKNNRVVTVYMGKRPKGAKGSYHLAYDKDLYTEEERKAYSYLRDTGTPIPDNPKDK

[14] = test system: Vero; assay: cells; format: functional; settings: Chlorocebus sabaeus
[15] = biological target: T6, Hexokinase HKDC1 (Homo sapiens, UniProt Q2TB90); assay: HKDC1 hexokinase inhibitors, dose response, biochemical, W721R variant (AID 504729); format: functional
T6 sequence (Q2TB90 whole entry): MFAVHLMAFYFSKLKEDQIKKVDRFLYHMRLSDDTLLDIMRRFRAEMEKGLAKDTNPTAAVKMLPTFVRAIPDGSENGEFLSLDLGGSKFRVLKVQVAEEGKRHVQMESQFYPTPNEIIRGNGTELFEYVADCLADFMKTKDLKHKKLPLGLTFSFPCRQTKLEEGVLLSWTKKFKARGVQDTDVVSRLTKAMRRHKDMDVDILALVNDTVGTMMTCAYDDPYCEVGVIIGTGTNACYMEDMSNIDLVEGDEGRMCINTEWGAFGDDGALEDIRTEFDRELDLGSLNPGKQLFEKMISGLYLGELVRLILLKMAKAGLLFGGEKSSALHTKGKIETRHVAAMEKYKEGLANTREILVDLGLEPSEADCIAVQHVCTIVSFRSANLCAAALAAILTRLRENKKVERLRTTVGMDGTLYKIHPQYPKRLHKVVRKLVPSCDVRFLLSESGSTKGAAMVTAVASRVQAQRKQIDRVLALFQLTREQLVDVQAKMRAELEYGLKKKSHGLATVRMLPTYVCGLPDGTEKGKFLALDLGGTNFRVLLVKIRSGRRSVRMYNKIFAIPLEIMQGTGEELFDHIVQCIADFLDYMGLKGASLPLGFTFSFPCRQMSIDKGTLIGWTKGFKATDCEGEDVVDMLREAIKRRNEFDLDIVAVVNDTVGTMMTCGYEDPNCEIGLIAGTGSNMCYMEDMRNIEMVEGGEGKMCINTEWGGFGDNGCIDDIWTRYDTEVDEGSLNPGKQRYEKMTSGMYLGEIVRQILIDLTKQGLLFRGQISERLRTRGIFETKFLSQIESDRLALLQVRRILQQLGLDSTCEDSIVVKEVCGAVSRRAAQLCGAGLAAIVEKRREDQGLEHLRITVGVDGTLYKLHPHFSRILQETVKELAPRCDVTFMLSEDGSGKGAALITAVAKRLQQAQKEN

[16] = biological target: Genome polyprotein (dengue virus type 2, UniProt P29990); assay: Dengue-2 NS5 methyltransferase inhibitors, primary screen, biochemical, confirmation dose response (AID 588689); format: functional
[17] = test system: Streptococcus; assay: Group A Streptococcus viability loss, dose response, counter-screen for streptokinase expression inhibitor project, luminescence, BacTiterGlo (AID 1915); format: functional, organism-based;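 also: potency for reduction of bacterial viability or growth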
[18] = biological target: Apoptotic protease-activating factor 1 (Homo sapiens, UniProt O14727); assay: SAR analysis of small molecule Activators of Apaf-1 in a Fluorescent assay.; format: functional; settings: read-out: EC50_Mean;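 also: caspase-3 cleavage of fluorogenic Rh110 DEVD substrate downstream of apoptosome activation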
[19] = nonselective inhibitors of cellular cAMP signaling, dose response, counter-screen for MC4R biased antagonist project, cell-based, TR-FRET cAMP detection (AID 602305); format: functional;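 also: U2OS cells stimulated with forskolin near its EC80 as the cAMP inducer; potency is for inhibition of forskolin-stimulated cAMP signaling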
[20] = biological target: Melanocortin receptor 4 (Homo sapiens, UniProt P32245); assay: MC4R antagonist potency on cAMP, dose response, cell-based, TR-FRET, biased antagonists (AID 602298); format: functional;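 also: antagonist potency against agonist-stimulated cAMP production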
Sequence of Melanocortin receptor 4 (P32245 whole entry): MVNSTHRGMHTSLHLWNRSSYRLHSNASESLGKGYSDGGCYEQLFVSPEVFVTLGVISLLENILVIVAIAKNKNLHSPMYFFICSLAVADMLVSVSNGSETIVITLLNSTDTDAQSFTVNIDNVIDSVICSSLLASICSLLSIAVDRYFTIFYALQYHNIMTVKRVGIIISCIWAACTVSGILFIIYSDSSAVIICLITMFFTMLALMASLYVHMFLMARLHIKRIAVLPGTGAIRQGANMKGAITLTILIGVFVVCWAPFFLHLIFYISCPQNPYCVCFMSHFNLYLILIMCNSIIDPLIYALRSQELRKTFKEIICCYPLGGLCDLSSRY

Sequence of Protein disulfide-isomerase (P07237 whole entry): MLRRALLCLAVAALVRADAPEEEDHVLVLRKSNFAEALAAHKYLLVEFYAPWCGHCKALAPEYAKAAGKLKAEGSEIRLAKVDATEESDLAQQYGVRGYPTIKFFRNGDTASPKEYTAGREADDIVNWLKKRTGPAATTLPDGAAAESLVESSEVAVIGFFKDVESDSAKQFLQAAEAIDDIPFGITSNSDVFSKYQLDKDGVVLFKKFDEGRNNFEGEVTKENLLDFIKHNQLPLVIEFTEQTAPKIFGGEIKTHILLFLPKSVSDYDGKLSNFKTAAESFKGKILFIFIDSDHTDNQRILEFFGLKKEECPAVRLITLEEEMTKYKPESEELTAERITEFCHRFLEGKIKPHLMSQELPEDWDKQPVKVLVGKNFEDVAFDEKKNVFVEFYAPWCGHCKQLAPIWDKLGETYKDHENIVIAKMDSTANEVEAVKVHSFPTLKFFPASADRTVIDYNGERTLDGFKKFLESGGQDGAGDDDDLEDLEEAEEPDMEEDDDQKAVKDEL
Sequence of Benomyl/methotrexate resistance protein (P28873 whole entry): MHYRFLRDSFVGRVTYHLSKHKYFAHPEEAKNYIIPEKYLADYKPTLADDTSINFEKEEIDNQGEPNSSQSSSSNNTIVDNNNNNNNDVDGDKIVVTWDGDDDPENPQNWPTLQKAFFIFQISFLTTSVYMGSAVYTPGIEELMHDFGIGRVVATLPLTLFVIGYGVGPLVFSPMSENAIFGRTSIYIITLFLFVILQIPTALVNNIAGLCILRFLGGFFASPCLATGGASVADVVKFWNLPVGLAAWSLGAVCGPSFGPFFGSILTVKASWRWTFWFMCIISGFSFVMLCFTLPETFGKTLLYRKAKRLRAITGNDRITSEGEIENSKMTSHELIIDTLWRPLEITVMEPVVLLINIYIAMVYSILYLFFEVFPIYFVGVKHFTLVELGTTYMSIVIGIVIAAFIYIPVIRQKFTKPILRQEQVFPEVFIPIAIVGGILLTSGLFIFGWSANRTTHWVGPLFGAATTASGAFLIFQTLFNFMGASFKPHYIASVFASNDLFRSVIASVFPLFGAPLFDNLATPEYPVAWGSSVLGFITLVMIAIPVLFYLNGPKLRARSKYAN
Sequence of Apoptotic protease-activating factor 1 (O14727 whole entry): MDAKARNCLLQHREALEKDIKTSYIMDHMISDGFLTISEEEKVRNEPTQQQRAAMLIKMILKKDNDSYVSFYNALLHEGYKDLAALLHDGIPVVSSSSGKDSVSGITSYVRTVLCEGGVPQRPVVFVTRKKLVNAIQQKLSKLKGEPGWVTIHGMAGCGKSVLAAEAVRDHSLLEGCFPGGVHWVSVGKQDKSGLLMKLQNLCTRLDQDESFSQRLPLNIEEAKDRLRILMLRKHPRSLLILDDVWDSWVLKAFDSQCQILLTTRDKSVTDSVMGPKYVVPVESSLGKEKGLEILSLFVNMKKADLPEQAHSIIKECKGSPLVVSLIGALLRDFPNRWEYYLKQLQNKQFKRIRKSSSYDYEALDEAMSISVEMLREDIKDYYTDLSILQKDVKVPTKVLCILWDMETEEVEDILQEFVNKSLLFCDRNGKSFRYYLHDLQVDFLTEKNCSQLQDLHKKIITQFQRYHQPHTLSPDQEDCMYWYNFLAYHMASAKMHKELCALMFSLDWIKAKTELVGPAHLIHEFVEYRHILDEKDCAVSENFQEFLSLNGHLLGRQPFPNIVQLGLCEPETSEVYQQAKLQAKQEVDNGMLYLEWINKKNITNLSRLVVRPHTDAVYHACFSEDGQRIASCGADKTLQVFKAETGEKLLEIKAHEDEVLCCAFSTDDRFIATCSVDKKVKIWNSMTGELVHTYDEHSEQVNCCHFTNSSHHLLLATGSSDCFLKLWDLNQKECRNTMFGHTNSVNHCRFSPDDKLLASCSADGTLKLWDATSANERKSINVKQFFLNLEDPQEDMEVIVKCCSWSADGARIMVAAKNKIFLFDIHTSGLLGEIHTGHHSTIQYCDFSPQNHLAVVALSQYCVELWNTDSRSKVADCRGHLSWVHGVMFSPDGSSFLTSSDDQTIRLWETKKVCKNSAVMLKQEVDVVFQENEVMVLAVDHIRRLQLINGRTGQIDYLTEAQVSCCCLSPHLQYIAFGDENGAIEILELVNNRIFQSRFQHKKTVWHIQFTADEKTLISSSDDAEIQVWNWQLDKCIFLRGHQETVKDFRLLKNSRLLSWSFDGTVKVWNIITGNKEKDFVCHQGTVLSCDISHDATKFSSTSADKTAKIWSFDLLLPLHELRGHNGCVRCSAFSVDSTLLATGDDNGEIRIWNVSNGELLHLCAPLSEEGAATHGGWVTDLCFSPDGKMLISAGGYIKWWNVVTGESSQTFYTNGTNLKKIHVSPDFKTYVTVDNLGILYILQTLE
Sequence of Genome polyprotein (P29990 2492-3391 limits assumed): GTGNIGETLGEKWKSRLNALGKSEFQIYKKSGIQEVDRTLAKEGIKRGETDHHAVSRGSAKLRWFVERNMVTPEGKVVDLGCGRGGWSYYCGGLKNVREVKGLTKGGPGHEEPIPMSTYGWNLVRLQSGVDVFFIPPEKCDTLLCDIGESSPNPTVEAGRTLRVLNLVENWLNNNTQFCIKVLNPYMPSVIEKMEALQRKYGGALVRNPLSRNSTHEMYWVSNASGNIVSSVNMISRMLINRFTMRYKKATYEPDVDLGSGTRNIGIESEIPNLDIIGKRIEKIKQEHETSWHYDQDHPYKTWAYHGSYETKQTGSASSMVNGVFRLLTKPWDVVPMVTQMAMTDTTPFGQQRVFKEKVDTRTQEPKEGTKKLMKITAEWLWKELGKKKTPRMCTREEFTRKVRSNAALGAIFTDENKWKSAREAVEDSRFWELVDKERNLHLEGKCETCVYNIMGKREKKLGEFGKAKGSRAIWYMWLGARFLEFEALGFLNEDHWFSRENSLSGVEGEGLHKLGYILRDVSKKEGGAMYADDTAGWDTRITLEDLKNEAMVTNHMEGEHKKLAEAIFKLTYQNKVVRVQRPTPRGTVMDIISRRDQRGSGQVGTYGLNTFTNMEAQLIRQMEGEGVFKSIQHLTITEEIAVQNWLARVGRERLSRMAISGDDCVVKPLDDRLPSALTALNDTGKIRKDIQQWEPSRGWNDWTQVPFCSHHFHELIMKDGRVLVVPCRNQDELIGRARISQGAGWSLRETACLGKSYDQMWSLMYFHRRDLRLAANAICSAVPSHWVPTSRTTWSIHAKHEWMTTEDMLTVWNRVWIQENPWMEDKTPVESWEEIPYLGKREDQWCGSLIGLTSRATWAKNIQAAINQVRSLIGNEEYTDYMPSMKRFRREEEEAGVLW

CCN(CC)c1ccc(/C=C/c2noc(-c3ccccc3O)n2)cc1
IC50 [1]: > 99 µM (inactive) | IC50 [2]: 43 µM (active) | IC50 [3]: 48 µM (active) | IC50 [4]: > 99 µM (inactive) | IC50 [5]: 14 µM (active) | IC50 [6]: > 99 µM (inactive) | IC50 [7]: 35 µM (active) | IC50 [8]: 30.7 µM (active)

COc1cccc(C2CC(c3ccccc3)=NN2S(=O)(=O)c2ccc(C)cc2)c1OC (stereo not given)
EC50 [9]: 9.58 µM (active)

C[C@H](CO)N1C[C@H](C)[C@H](CN(C)Cc2ccccc2)Oc2ccc(NC(=O)Nc3ccccc3)cc2CC1=O
AC50 [10]: 19.5 µM (active)

CCOc1cc(/C=C(/C#N)c2nc(-c3ccc(C)cc3)no2)cc(Cl)c1O
IC50 [1]: > 99 µM (inactive) | IC50 [4]: > 99 µM (inactive) | IC50 [6]: > 99 µM (inactive) | IC50 [8]: > 99 µM (inactive)

COc1ccc(C(=O)c2coc3c2C(=O)C(=O)c2ccccc2-3)cc1
EC50 [11]: 1.84 µM (active) | CC50 [12]: > 40 µM (active) | EC50 [13]: > 150 µM (not active) | CC50 [14]: > 25 µM (active) | IC50 [15]: 11.3 µM (active) | IC50 [16]: 34.5 µM (active) | EC50 [17]: 14.7 µM (active)

Cc1cc(C)n(C(C)CC(=O)Nc2cccnc2)n1 (stereo not given)
EC50 [18]: > 100 µM (inactive)

C[C@@H]1CN([C@@H](C)CO)C(=O)c2cccc(NS(C)(=O)=O)c2O[C@H]1CN(C)Cc1ccc(Oc2ccccc2)cc1
AC50 [10]: 19.5 µM (active) and 7.04 µM (active)

Cc1[nH]c(C)c(C(=O)/C=C/c2ccc([N+](=O)[O-])cc2)c1C
IC50 [19]: > 64.6 µM (inactive) | IC50 [20]: > 64.6 µM (inactive)

— ChEMBL document CHEMBL1201862, “PubChem BioAssay data set” (2004)
